Laboratory results reported in patent US20070098665A1, “Effects of skin surface temperature on the epidermal permeability barrier homeostasis” (Shiseido Company, Ltd., priority 2005, published 2007).

What was measured:
hairless mice skin [1] = experiment: Barrier recovery (TEWL) after tape stripping with topical application of reagent; assay type: in vivo, hairless mice (HR-1); conditions: for effect on barrier recovery (percent recovery of TEWL): topical, 100 μl aqueous solution containing 1 μM of reagent immediately after tape stripping, TEWL at 1, 3 and 6 hours, vs water control, FIG. 3
Method: All experiments were performed on 7-10-week old male hairless mice (HR-1, Hoshino, Japan). All procedures for measuring of skin barrier function, disrupting the barrier and applying the sample were carried out under anesthesia. All experiments were approved by the Animal Research Committee of the Shiseido Research Center in accordance with the National Research Council Guide (National Research Council 1996). Human skin experiments were carried out on the inner forearm of healthy males who gave their informed consent. 4 alpha-phorbol 12,13-[…] (4 alpha-PDD) and Rutenium-Red were purchased from Sigma (Sigma, St.Louis, Mich. USA). Capsaicin, capsazepine, and 2-aminoethoxydiphenyl borate (2-APB) were purchased from Tocris (TOCRIS, Bristol, UK). Camphor was purchased Wako (Wako, Osaka, Japan). Capsaicin is an agonist of TRPV1 and capsazepine is an antagonist of TRPV1 (Caterina et al. 1997). Both 2-APB and camphor are activator of TRPV3 (Chung et al. 2003)(Moquich et al. 2005). 4 alpha-PDD is an activator of TRPV4 and Rutenium-Red is a blocker of TRPV4 (Watanabe et al. 2002).
(§1) Permeability barrier function was evaluated by measurement of transepidermal water loss (TEWL) with an electric water analyzer, as described previously (Denda et al. 1998). For barrier recovery experiments, both sides of flank skin were treated with repeated tape stripping procedure until the TEWL reached 7-10 mg per cm^2 per h, as described previously (Denda et al. 1998). Immediately after barrier disruption, 100 μl of an aqueous solution containing 1 μM of reagent or water alone (control) was applied to the treated area. […] The areas were covered with plastic membranes for 15 min and then the membranes were removed. Two points in one side of flank were measured and 4-8 mice were used to evaluate the effects of each treatment. We always disrupted the barrier within 7:00 AM to 8:00 AM and carried out the following measurements of the barrier repair to avoid the deviation of the repair rate due to the influence of circadian rhythm (Denda et al. 2000). TEWL was then measured over the same sites at 1, 3 and 6 hours after barrier disruption. The barrier recovery results are expressed as percent of recovery, because of variations from day to day in the extent of barrier disruption. In each animal, the percentage of recovery was calculated by the following formula: (TEWL immediately after barrier disruption−TEWL at indicated time point)/(TEWL immediately after barrier disruption−baseline TEWL)×100%. All experiments were performed on 7 to 10-week-old male hairless mice (HR-1, Hoshino, Japan). All procedures of the measurement of skin barrier function, disruption of the barrier and application of test sample were carried out under anesthesia.
The results are expressed as the mean ± SD. Statistical differences between two groups were determined by a two-tailed Student's t-test. In the case of more than 2 groups, differences were determined by ANOVA test (Fisher's protected least significant difference).

hairless mice skin [2] = experiment: Barrier recovery (TEWL) after tape stripping with applied heat plus topical reagent; assay type: in vivo, hairless mice (HR-1); conditions: topical application, FIG. 4
Method: as §1, with “We always disrupted the barrier within 7:00 AM to 8:00 AM and carried out the following measurements of the barrier repair to avoid the deviation of the repair rate due to the influence of circadian rhythm (Denda et al. 2000).” left out, “All experiments were performed on 7 to 10-week-old male hairless mice (HR-1, Hoshino, Japan). All procedures of the measurement of skin barrier function, disruption of the barrier and application of test sample were carried out under anesthesia.” left out
The results are expressed as the mean ± SD. Statistical differences between two groups were determined by a two-tailed Student's t-test. […]

| Compound | effect on barrier recovery (percent recovery of TEWL) (hairless mice skin [1]) | effect on the delay of barrier recovery after capsaicin application (hairless mice skin [1]; topical application on hairless mice skin after tape stripping, as worded in the summary b8) | effect on the delay of the barrier recovery by heat 42° C. (hairless mice skin [2]; heat 42° C. applied for one hour after tape stripping) | effect on the acceleration of the barrier recovery by heat 36° C. (hairless mice skin [2]; heat 36° C. applied for one hour after tape stripping) |
| --- | --- | --- | --- | --- |
| NCCOB(c1ccccc1)c1ccccc1 [2-aminoethoxydiphenyl borate] | did not affect the barrier recovery rate | – | – | – |
| CCCCCCCCCC(=O)O[C@@H]1[C@@H](C)[C@@]2(O)[C@@H](C=C(CO)C[C@@]3(O)C(=O)C(C)=C[C@@H]23)[C@@H]2C(C)(C)[C@]12OC(=O)CCCCCCCCC [4 alpha-PDD, 4 alpha-phorbol 12,13-didecanoate] | accelerated the barrier recovery | – | – | – |
| CC12CCC(CC1=O)C2(C)C (stereo not drawn) [camphor, Camphor] | did not affect the barrier recovery rate | – | – | – |
| COc1cc(CNC(=O)CCCC/C=C/C(C)C)ccc1O [capsaicin, Capsaicin] | delayed the barrier recovery | – | – | – |
| Oc1cc2c(cc1O)CN(C(=S)NCCc1ccc(Cl)cc1)CCC2 [capsazepine] | accelerated the barrier repair | the delay was blocked | blocked the delay of the barrier recovery by heat 42 °C | – |
| Rutenium-Red | delayed the recovery | – | – | blocked the acceleration of the barrier recovery by heat 36 °C |
